Experimental findings from publication PMC9516332 (Frontiers in Oncology, 2022) are described below.

Common to all, as to experiment: Kinase panel profiling at 1 µmol/L (MSA or IMAP), percentage inhibition
Type in all cases: biochemical

Experiment [1] deals with panel of 255 wild-type kinases (Homo sapiens, UniProt Q06187). The note with it: BTK kinase assay; 1 µmol/L single concentration; read-out: %-inhibition BTK.
The target in experiment [2] is panel of 255 wild-type kinases (Homo sapiens, UniProt P16234). The note with it: kinase PDGFRα; 1 µmol/L single concentration; read-out: %-inhibition at 1 µmol/L, PDGFRα.
Experiment [3] deals with panel of 255 wild-type kinases (Homo sapiens, UniProt P04629). The note with it: kinase TRKA; 1 µmol/L single concentration; read-out: %-inhibition at 1 µmol/L, TRKA.
Experiment [4] has as its target panel of 255 wild-type kinases (Homo sapiens, UniProt P07333). The note with it: kinase FMS; 1 µmol/L single concentration; read-out: %-inhibition at 1 µmol/L, FMS.
The target in experiment [5] is T1, panel of 255 wild-type kinases (Homo sapiens, UniProt P51813).
T1 sequence (P51813 1-675): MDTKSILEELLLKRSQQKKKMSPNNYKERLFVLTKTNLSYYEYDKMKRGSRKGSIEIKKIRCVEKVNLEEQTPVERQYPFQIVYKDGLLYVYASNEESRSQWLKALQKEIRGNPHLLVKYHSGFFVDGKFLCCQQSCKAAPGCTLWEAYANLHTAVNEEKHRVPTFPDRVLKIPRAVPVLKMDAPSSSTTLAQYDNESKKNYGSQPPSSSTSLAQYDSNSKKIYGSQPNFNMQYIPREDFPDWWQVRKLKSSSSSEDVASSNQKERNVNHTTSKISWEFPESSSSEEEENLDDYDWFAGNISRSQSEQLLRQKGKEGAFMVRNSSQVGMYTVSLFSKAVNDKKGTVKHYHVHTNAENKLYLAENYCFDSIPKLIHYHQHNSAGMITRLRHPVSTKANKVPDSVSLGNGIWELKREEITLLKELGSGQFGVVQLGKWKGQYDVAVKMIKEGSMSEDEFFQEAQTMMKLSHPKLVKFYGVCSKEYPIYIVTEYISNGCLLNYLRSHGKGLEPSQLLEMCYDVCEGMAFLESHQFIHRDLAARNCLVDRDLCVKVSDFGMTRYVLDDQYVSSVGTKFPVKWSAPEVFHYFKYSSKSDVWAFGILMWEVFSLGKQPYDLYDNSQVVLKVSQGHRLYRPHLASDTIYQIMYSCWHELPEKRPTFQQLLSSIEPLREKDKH
As to conditions: BMX kinase assay; 1 µmol/L single concentration; read-out: %-inhibition BMX.

The target in experiment [6] is panel of 255 wild-type kinases (Homo sapiens, UniProt P54646). The note with it: AMPKα2/β1/γ1 kinase assay; 1 µmol/L single concentration; read-out: %-inhibition AMPKα2/β1/γ1.
The target in experiment [7] is T2, panel of 255 wild-type kinases (Homo sapiens, UniProt O14920).
T2 sequence (O14920 1-756): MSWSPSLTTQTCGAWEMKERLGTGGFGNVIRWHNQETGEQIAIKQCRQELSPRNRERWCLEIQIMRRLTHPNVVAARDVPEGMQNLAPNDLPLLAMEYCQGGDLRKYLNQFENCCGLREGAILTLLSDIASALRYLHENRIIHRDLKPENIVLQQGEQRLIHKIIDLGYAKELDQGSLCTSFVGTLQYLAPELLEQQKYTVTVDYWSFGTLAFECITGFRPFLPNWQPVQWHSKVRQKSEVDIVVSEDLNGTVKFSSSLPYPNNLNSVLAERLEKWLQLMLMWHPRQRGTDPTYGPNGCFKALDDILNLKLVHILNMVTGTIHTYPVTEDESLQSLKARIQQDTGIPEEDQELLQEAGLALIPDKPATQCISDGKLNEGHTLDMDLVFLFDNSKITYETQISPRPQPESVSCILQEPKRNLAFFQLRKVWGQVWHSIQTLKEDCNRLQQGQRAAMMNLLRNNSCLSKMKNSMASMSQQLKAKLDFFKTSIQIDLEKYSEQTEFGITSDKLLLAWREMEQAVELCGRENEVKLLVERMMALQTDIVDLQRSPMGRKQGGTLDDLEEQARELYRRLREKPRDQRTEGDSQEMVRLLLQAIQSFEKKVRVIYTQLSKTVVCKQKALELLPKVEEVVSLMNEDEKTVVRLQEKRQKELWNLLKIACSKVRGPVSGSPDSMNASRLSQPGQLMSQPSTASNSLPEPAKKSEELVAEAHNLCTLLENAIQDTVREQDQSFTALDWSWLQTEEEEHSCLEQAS
As to conditions: kinase IKKβ; 1 µmol/L single concentration; read-out: %-inhibition at 1 µmol/L, IKKβ.

The target in experiment [8] is panel of 255 wild-type kinases (Homo sapiens, UniProt P51451). The note with it: BLK kinase assay, 1 µmol/L single concentration; for inhibition at 1 µM: read-out: %-inhibition BLK.
The target in experiment [9] is panel of 255 wild-type kinases (Homo sapiens, UniProt P28482). The note with it: kinase Erk2; 1 µmol/L single concentration; read-out: %-inhibition at 1 µmol/L, Erk2.
The target of experiment [10] is panel of 255 wild-type kinases (Homo sapiens, UniProt P23458). The note with it: kinase JAK1; 1 µmol/L single concentration; read-out: %-inhibition at 1 µmol/L, JAK1.
Experiment [11] deals with panel of 255 wild-type kinases (Homo sapiens, UniProt P00533). As to conditions: kinase EGFR; 1 µmol/L single concentration; read-out: %-inhibition at 1 µmol/L, EGFR.
For experiment [12], the target named is panel of 255 wild-type kinases (Homo sapiens, UniProt P45983). As to conditions: kinase JNK1; 1 µmol/L single concentration; read-out: %-inhibition at 1 µmol/L, JNK1.
The target of experiment [13] is panel of 255 wild-type kinases (Homo sapiens, UniProt P54756). As to conditions: kinase EPHA5; 1 µmol/L single concentration; read-out: %-inhibition at 1 µmol/L, EPHA5.
Experiment [14] has as its target panel of 255 wild-type kinases (Homo sapiens, UniProt Q9H422). The note with it: kinase HIPK3; 1 µmol/L single concentration; read-out: %-inhibition at 1 µmol/L, HIPK3.
Experiment [15] deals with panel of 255 wild-type kinases (Homo sapiens, UniProt P53355). The note with it: kinase DAPK1; 1 µmol/L single concentration; read-out: %-inhibition at 1 µmol/L, DAPK1.

On to `Cc1nc(NC(=O)N2CCC[C@H]2C(N)=O)sc1-c1ccnc(C(C)(C)C(F)(F)F)c1` [alpelisib], for which the inhibition at 1 µM in experiment [1] is -0.621%; in [2] it was 0.405%; in experiment [3], 6.61%; in experiment [4], 14%; in experiment [5], 0.476%; in [6], 2.22%. Moreover, the inhibition at 1 µM is 0.111% in experiment [7]; -13% in experiment [8]; -0.753% in [9]; -8% in experiment [10]; 2% in [11]; -5% in experiment [12]. For the same molecule, the inhibition at 1 µM in experiment [13] is 0.272%; in experiment [14], 7%; in experiment [15], -3%.

For the molecule `Cn1cc(-c2cc3c(N4CCN(c5ncc([C@@](C)(N)c6ccc(F)cc6)cn5)CC4)ncnn3c2)cn1` [avapritinib], the inhibition at 1 µM came to 13% in experiment [1]; 65% in experiment [3]; 21% in [5]; 3% in experiment [6]; 0.049% in [7]; 50% in experiment [8]. Also, the inhibition at 1 µM was 5% in experiment [9]; 29% in [10]; 25% in experiment [11]; -4.54% in experiment [12]; 41% in experiment [13]; -0.071% in experiment [14]. Further, the inhibition at 1 µM in experiment [15] was 0.0958%.

In the case of `CN1CCN(c2ccc(C(=O)Nc3n[nH]c4ccc(Cc5cc(F)cc(F)c5)cc34)c(NC3CCOCC3)c2)CC1` [entrectinib], the inhibition at 1 µM in experiment [1] was 97%; in experiment [2], 29%; in experiment [4], 86%; in [5], 99%; in experiment [6] it was 79%; in experiment [7] it was -0.451%. Further, the inhibition at 1 µM in experiment [8] is 86%; in [9] it was -0.572%; in [10], 91%; in experiment [12] it was -0.262%; in experiment [13], 53%; in experiment [14], 5%. Moreover, the inhibition at 1 µM in [15] turned out to be 16%.

Turning to `CCN1CCN(c2ccc(Nc3cc(N(C)C(=O)Nc4c(Cl)c(OC)cc(OC)c4Cl)ncn3)cc2)CC1` [infigratinib], the inhibition at 1 µM was 59% in experiment [2]; 27% in [3]; 96% in experiment [4]; 0.836% in experiment [5]; -2% in [6]; 0.304% in [7]. Besides, the inhibition at 1 µM in experiment [8] was 21%; in experiment [9] it was -4%; in experiment [10] it was 2.57%; in experiment [12], -3.19%; in experiment [13], -8%; in [14], -3.71%. Further, the inhibition at 1 µM in [15] is -3%.

For the molecule `C[C@H]1Oc2cc(cnc2N)-c2c(nn(C)c2C#N)CN(C)C(=O)c2ccc(F)cc21` [lorlatinib], the inhibition at 1 µM in [1] was 1.48%; in experiment [2] it was 1.74%; in experiment [4] it was 32%; in [5] it was 4%; in [6], 2.22%; in experiment [7], -0.377%. Besides, the inhibition at 1 µM in [8] is -6%; in experiment [9], 0.392%; in [10] it was -0.817%; in [11], 9.49%; in experiment [12], -0.746%; in experiment [13], 38%. For the same molecule, the inhibition at 1 µM in experiment [14] was found to be 0.506%; in [15] it was 6.55%.

For `FC(F)(F)c1ccc(CNc2ccc(Cc3c[nH]c4ncc(Cl)cc34)cn2)cn1` [pexidartinib], the inhibition at 1 µM in experiment [1] is -0.863%; in [2], 83%; in [3] it was 79%; in [4] it was 95%; in experiment [5] it was -0.565%; in [6] it was -7%. Further, the inhibition at 1 µM in experiment [7] was 5%; in experiment [8], 18%; in experiment [9], -3.53%; in experiment [10], 7%; in [12] it was -1.87%; in experiment [13] it was 4%. The inhibition at 1 µM in experiment [14] was 3.52%; in experiment [15] it was -9%.

With `CCn1c(=O)c(-c2cc(NC(=O)Nc3ccccc3)c(F)cc2Br)cc2cnc(NC)cc21` [ripretinib], the inhibition at 1 µM was 4.22% in experiment [1]; 42% in experiment [3]; 71% in [4]; 60% in experiment [5]; -22% in experiment [6]; 21% in experiment [7]. The inhibition at 1 µM in [8] was 26%; in experiment [9], -2.43%; in [10], 26%; in experiment [11] it was 10%; in experiment [12], 4%; in experiment [13] it was 100%. The inhibition at 1 µM in [14] is 4%; in experiment [15] it was -10%.

As to `C=CC(=O)N1CCC([C@@H]2CCNc3c(C(N)=O)c(-c4ccc(Oc5ccccc5)cc4)nn32)CC1` [zanubrutinib], the inhibition at 1 µM in experiment [2] is 11%; in experiment [3], 9%; in experiment [4] it was -7%; in [6] it was -5%; in experiment [7] it was -0.69%; in experiment [9], -5%. Moreover, the inhibition at 1 µM was -3% in [10]; 92% in experiment [11]; -3.49% in [12]; 0.0392% in [13]; -2.42% in experiment [14]; -2% in experiment [15]. The “%-inhibition BLK” value in experiment [8] is recorded as 98%.
